In the NIST ThermoML archive (doi:10.1021/je900410j) one finds Normal melting temperature data, which are given here for six molecules.

Numbers after ± are expanded uncertainties.

For the series the following is noted: Crystal; DTA.
With `CCCCCCCC(=O)OCC(COC(=O)CCCCCCC)OC(=O)CCCCCCC` [1,2,3-propanetriol trioctanoate], the Normal melting temperature was found to be 9.60 ± 0.53 °C.
For `CCCCCCCC/C=C\CCCCCCCC(=O)OCC(COC(=O)CCCCCCC/C=C\CCCCCCCC)OC(=O)CCCCCCC/C=C\CCCCCCCC` [1,2,3-tri(cis-9-octadecenoyl)glycerol] the value was 5.27 ± 0.53 °C.
In the case of `CCCCCCCCCCCCCCCC(=O)O` [hexadecanoic acid], the Normal melting temperature was 63.32 ± 0.53 °C.
For the molecule `CCCCCCCCCCCCCCCCCC(=O)O` [octadecanoic acid], the Normal melting temperature came out at 70.23 ± 0.53 °C.
In the case of `CCCCCCCCCCCCCC(=O)O` [tetradecanoic acid] it was 55.41 ± 0.53 °C; in that of `CC/C=C\C/C=C\C/C=C\CCCCCCCC(=O)OCC(COC(=O)CCCCCCC/C=C\C/C=C\C/C=C\CC)OC(=O)CCCCCCC/C=C\C/C=C\C/C=C\CC` [trilinolenin], -22.0 ± 0.53 °C.
